The results in this text go back to patent US20030157174A1, “Enteric granular preparations of hardly water soluble drugs characterized by containing water-repellent component” (priority 2002, published 2003).

In brackets after ≈: the same amount, converted by molar mass.

The nature of the data set: Solubilities of Compound A to several test solutions. It is filed as physicochemical. The source says:
Compound A was used as an insoluble active ingredient in the following references and examples.

Regarding `CC1(C)[C@H]2C[C@H](C/C=C\CCCC(=O)O)[C@@H](NC(=O)c3csc4ccc(O)cc34)[C@@H]1C2` [Compound A, (Z)-7-[(1R,2R,3S,5S)-2-(5-hydroxybenzo[b]thiophen-3-ylcarbonylamino)-10-norpinan-3-yl]-5-heptenoic acid], the “Final pH” value by setting is: (test solution JP-1 Sol.) 1.15; (test solution JP-2 Sol.) 6.84; (test solution Water) 5.81; (test solution pH4.0) 4.07; (test solution pH6.0) 6.08; (test solution pH7.8) 7.6. The “Final pH” value reads like this: (test solution pH8.0) 7.76; (test solution pH8.5) 8.29. The “Solubility 3 hours” value (test solution JP-2 Sol.) stood at 81.08 µg/mL (≈ 184 µM); the “Solubility 3 hours” value (test solution Water) came to 5.56 µg/mL (≈ 12.6 µM); the “Solubility 3 hours” value (test solution pH6.0) came out at 15.19 µg/mL (≈ 34.4 µM); the “Solubility 3 hours” value (test solution pH7.8) stood at 487.87 µg/mL (≈ 1100 µM); the “Solubility 3 hours” value (test solution pH8.0) is 652.56 µg/mL (≈ 1480 µM); the “Solubility 3 hours” value (test solution pH8.5) came out at 6197.64 µg/mL (≈ 14000 µM). Also, the “Solubility 6 hours” value by setting is: (test solution JP-2 Sol.) 81.65 µg/mL (≈ 185 µM); (test solution Water) 5.93 µg/mL (≈ 13.4 µM); (test solution pH6.0) 15.57 µg/mL (≈ 35.3 µM); (test solution pH7.8) 489.05 µg/mL (≈ 1110 µM); (test solution pH8.0) 675.55 µg/mL (≈ 1530 µM); (test solution pH8.5) 6224.39 µg/mL (≈ 14100 µM).
